The values that follow come from ChEMBL document CHEMBL1287777 (Bioorg Med Chem Lett, 2010).

SMILES strings stand for the structures. pKi: −log10 of the molar value.

One assay addresses Carbonic anhydrase 2 (Homo sapiens, UniProt P00918).
The target in the next assay is Carbonic anhydrase 9 (Homo sapiens, UniProt Q16790). Briefly: Inhibition of human recombinant CA9 catalytic domain by stopped-flow CO2 hydration method.
The next assay deals with Carbonic anhydrase 1 (Homo sapiens, UniProt P00915). The experiment in a line: Inhibition of full length human CA1 cytosolic isoform by stopped-flow CO2 hydration method.
Chain of Carbonic anhydrase 1 (P00915 whole entry, canonical isoform): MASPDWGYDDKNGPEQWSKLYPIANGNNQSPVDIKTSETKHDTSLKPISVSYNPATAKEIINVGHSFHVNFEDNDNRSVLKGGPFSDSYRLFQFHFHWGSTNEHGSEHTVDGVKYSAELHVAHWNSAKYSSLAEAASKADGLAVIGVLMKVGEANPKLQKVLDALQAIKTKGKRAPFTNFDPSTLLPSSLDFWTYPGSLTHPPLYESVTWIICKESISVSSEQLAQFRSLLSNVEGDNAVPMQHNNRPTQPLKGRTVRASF

Turning to `CC(=O)c1cc2ccc(=O)oc2cc1O`, the pKi – broadly, −log10 of the Ki, conventionally taken in molar units – on Carbonic anhydrase 2 was below 4.00.
Turning to `CCC(=O)c1cc2ccc(=O)oc2cc1O`, the pKi at Carbonic anhydrase 2 was below 4.00; on Carbonic anhydrase 9, 5.10.
On to `CCC(=O)c1c(O)ccc2ccc(=O)oc12`, for which the pKi at Carbonic anhydrase 2 and on Carbonic anhydrase 1 was below 4.00 each time.
Turning to `COc1cc2oc(=O)ccc2cc1C(C)=O`, the figures for the negative-log Ki (pKi) on Carbonic anhydrase 2, on Carbonic anhydrase 1 and at Carbonic anhydrase 9 were below 4.00, below 4.00 and 5.11, respectively.
For `CCOc1cc2oc(=O)ccc2cc1C(C)=O`, the figures for the negative logarithm of the Ki (pKi) on Carbonic anhydrase 1 and on Carbonic anhydrase 9 were below 4.00 and 5.13, respectively.
As to `CCCOc1cc2oc(=O)ccc2cc1C(C)=O`, the pKi at Carbonic anhydrase 2 was below 4.00; at Carbonic anhydrase 1 it was below 4.00; at Carbonic anhydrase 9, 5.12.
Consider `CCCCOc1cc2oc(=O)ccc2cc1C(C)=O`, for which the negative logarithm of the Ki (pKi) on Carbonic anhydrase 2, on Carbonic anhydrase 1 and on Carbonic anhydrase 9 was below 4.00 each time.
With `COc1ccc2ccc(=O)oc2c1C(C)=O`, the negative-log Ki (pKi) on Carbonic anhydrase 2 is below 4.00; at Carbonic anhydrase 1 it was below 4.00; on Carbonic anhydrase 9, 7.11.
For the compound `CCOc1ccc2ccc(=O)oc2c1C(C)=O`, the figures for the negative logarithm of the Ki (pKi) at Carbonic anhydrase 2, at Carbonic anhydrase 1 and at Carbonic anhydrase 9 were below 4.00, below 4.00 and 7.15, respectively.
Turning to `CCCOc1ccc2ccc(=O)oc2c1C(C)=O`, the pKi on Carbonic anhydrase 2 was below 4.00; at Carbonic anhydrase 1, below 4.00; at Carbonic anhydrase 9, 7.25.
`CCCCOc1ccc2ccc(=O)oc2c1C(C)=O`: the pKi on Carbonic anhydrase 2 and on Carbonic anhydrase 1 was below 4.00 in each case.
For `CCC(=O)c1c(OC)ccc2ccc(=O)oc12`, the pKi on Carbonic anhydrase 2 was below 4.00; at Carbonic anhydrase 1, below 4.00; at Carbonic anhydrase 9, 7.42.
Consider `CCOc1ccc2ccc(=O)oc2c1C(=O)CC`, for which the figures for the pKi on Carbonic anhydrase 2, at Carbonic anhydrase 1 and on Carbonic anhydrase 9 were below 4.00, below 4.00 and 7.33, respectively.
Turning to `CCCOc1ccc2ccc(=O)oc2c1C(=O)CC`, the pKi at Carbonic anhydrase 2 and at Carbonic anhydrase 1 was below 4.00 throughout.
Regarding `CC(=O)c1cc2ccc(=O)oc2cc1OCc1ccccc1`, the pKi on Carbonic anhydrase 1 and at Carbonic anhydrase 9 was below 4.00 in each case.
For `CC(=O)c1cc2ccc(=O)oc2cc1OCCC12CC3CC(CC(C3)C1)C2`, the pKi on Carbonic anhydrase 2, on Carbonic anhydrase 1 and at Carbonic anhydrase 9 was below 4.00 each time.
On to `CC(=O)c1c(OCc2ccccc2)ccc2ccc(=O)oc12`, for which the pKi on Carbonic anhydrase 1 is below 4.00; at Carbonic anhydrase 9, 7.14.
For `CC(=O)c1c(OCCC23CC4CC(CC(C4)C2)C3)ccc2ccc(=O)oc12`, the negative logarithm of the Ki (pKi) at Carbonic anhydrase 2 was below 4.00; at Carbonic anhydrase 1, below 4.00; on Carbonic anhydrase 9 it was 7.19.
In the case of `CC(=O)c1c(O)ccc2ccc(=O)oc12`, the values for the negative-log Ki (pKi) on Carbonic anhydrase 2, on Carbonic anhydrase 1 and on Carbonic anhydrase 9 were below 4.00, below 4.00 and 7.14, respectively.
